Consider five compounds from US20250237642A1 (priority 2022, published 2025).

One assay has as its system HIV-RT M184V and M184I. As to conditions: cited from earlier work.
For assay [1], the target named is T1, HIV-RT Q151M mutation (Human immunodeficiency virus type 1 group M subtype B, UniProt P03366, Q750M). As to conditions: cited from earlier work.
The target in assay [2] is T1, HIV-RT Q151M mutation. The conditions noted are these: cited from earlier work. This is another data set of the same source.
Assay [3] has as its target HBV core protein mutants (Hepatitis B virus genotype D subtype ayw, UniProt P03146, F23Y). As to conditions: cited from earlier work.
For assay [4], the target named is HBV core protein mutants (Hepatitis B virus genotype D subtype ayw, UniProt P03146, F110I). As to conditions: cited from earlier work.
For assay [5], the target named is HBV core protein mutants (Hepatitis B virus genotype D subtype ayw, UniProt P03146, T33Q). The conditions noted are these: cited from earlier work.
In assay [6] the target is HBV core protein mutants (Hepatitis B virus genotype D subtype ayw, UniProt P03146, L30F). The conditions noted are these: cited from earlier work.
For the next assay, the target named is T109 mutant (Hepatitis B virus genotype D subtype ayw, UniProt P03146, T109I).
A further assay deals with HBV wild-type (Hepatitis B virus genotype D subtype ayw, UniProt P03146).
In assay [7] the target is HBV core protein mutants (Hepatitis B virus genotype D subtype ayw, UniProt P03146, T109I). As to conditions: cited from earlier work.
Assay [8] addresses HBV core protein mutants (Hepatitis B virus genotype D subtype ayw, UniProt P03146, L140I). The conditions noted are these: cited from earlier work.
For assay [9], the target named is HBV core protein mutants (Hepatitis B virus genotype D subtype ayw, UniProt P03146, T128I). As to conditions: cited from earlier work.

Regarding `Nc1nc(=O)n([C@@H]2CS[C@H](CO)O2)cc1F` [(-)-FTC, emtricitabine], the fold resistance in the assay on HIV-RT M184V and M184I was 500-1000 fold. For the same compound, on HIV-RT Q151M mutation [1], the Enzymatic sensitivity result is “remains sensitive”. For the same compound, the “fold reduction of EC50” value at HIV-RT Q151M mutation [2] is 2 fold.

As to `COC(=O)C1=C(C)NC(c2ncc(F)cc2F)=N[C@H]1c1ccc(F)cc1Cl` [BAY41-4109], the Reported resistance mutation result was “resistance mutations” at HBV core protein mutants [3], “reported” at HBV core protein mutants [4], “resistance mutation” at HBV core protein mutants [5] and “resistance mutations” on HBV core protein mutants [6].

With `C#CCNC(=O)C(=O)c1c(C)c(C(=O)Nc2ccc(F)c(F)c2)n(C)c1C` [GLP-26], the “Reduction of cccDNA” value on T109 mutant is “susceptible”. The “Effect on HBeAg production (sensitive / resistant)” value at HBV wild-type is “Sensitive”.

For `CCOC(=O)C1=C(CN2CCOCC2)NC(c2nccs2)=NC1c1ccc(F)cc1Br` (stereo not drawn) [GLS4], on HBV core protein mutants [7], the Reported resistance mutation result was “resistant”.

On to `C[C@H](NS(=O)(=O)c1cc(C(=O)Nc2ccc(F)c(C#N)c2)n(C)c1)C(F)(F)F` [JNJ-6379], for which the Reported resistance mutation entry at HBV core protein mutants [8] is recorded as “reported”; at HBV core protein mutants [3], “resistance mutations”; on HBV core protein mutants [4], “reported”; on HBV core protein mutants [6] it was “resistance mutations”; at HBV core protein mutants [9], “reported”.
